Results on six compounds are retold here after publication PMC12717519, “Chemical clues to infection: A pilot study on the differential secondary metabolite production during the life cycle of selected Cordyceps species” (IMA Fungus, 2025).

For data set [1] the following is noted: ref Namatame et al. 2004; cited from earlier work. The source says:
(§1) Our study highlights how amino acid substitutions modulate beauveriolides’ bioactivities. […] Thus, the amino acid at this position is crucial for bioactivity. The lack of antimicrobial activity in some beauveriolides, such as those containing HDA, further supports the hypothesis that these molecules may have different functions, such as facilitating insect pathogenicity rather than broad antimicrobial antagonism.

For data set [2], the system named is macrophages. Conditions: ref Namatame et al. 2004; cited from earlier work.
Excerpt: as §1

Data set [3] relates to Bacillus subtilis (DSM 10). Put plainly: microbe, parasite or virus in culture. The format is cell-based. The method, then:
(§2) Serial dilution assays were performed in 96-well microtiter plates to determine the minimum inhibitory concentrations (MICs) against a panel of yeasts, filamentous fungi, and bacteria, as well as the half-maximal inhibitory concentrations (IC50) against human cell lines, following our previously described protocol ([Charria-Girón et al. 2023]).

The subject of data set [4] is Staphylococcus aureus (DSM 346). Put plainly: microbe, parasite or virus in culture. The format is cell-based. The method, then:
as §2

The test system of data set [5] is Candida albicans (DSM 1665). Put plainly: MIC serial dilution assay. It counts as cell-based. As to conditions: serial dilution in 96-well microtiter plates; tested up to 67 µg/mL. The procedure: as §2
The test system of data set [6] is Escherichia coli (DSM 1116). Put plainly: MIC serial dilution assay. The format is cell-based. As to conditions: serial dilution in 96-well microtiter plates; tested up to 67 µg/mL. The procedure: as §2
Data set [7] concerns Mucor hiemalis (DSM 2656). Put plainly: MIC serial dilution assay. The format is cell-based. Conditions: serial dilution in 96-well microtiter plates; tested up to 67 µg/mL. The method, then:
as §2

Data set [8] relates to Mycobacterium smegmatis (ATCC 700084). Put plainly: MIC serial dilution assay. It counts as cell-based. Conditions: serial dilution in 96-well microtiter plates; tested up to 67 µg/mL. The procedure: as §2
Data set [9] deals with Pseudomonas aeruginosa (PA14). Put plainly: MIC serial dilution assay. The format is cell-based. Conditions: serial dilution in 96-well microtiter plates; tested up to 67 µg/mL. The method, then:
as §2

In data set [10] the test system is Mouse fibroblast (L929). Put plainly: Cytotoxicity assay. The format is cell-based. As to conditions: serial dilution in 96-well plates.
For data set [11], the system named is Human endocervival adenocarcinoma (KB3.1). Put plainly: cells. It counts as cell-based. The method, then: as §2
The nature of data set [12]: Solubility in deuterated solvents (for NMR). As to conditions: observation during NMR sample preparation; deuterated solvents / deuterated DMSO. It counts as physicochemical.
Data set [13] has as its system Acinetobacter baumannii (DSM 30008). Put plainly: MIC serial dilution assay. The format is cell-based. As to conditions: serial dilution in 96-well microtiter plates; tested up to 67 µg/mL. The method, then:
as §2

Data set [14] relates to Chromobacterium violaceum (DSM 30191). Put plainly: MIC serial dilution assay. The format is cell-based. Conditions: serial dilution in 96-well microtiter plates; tested up to 67 µg/mL. The method, then:
as §2

The subject of data set [15] is Rhodotorula glutinis (DSM 10134). Put plainly: MIC serial dilution assay. It counts as cell-based. As to conditions: serial dilution in 96-well microtiter plates; tested up to 67 µg/mL. The method, then:
as §2

The test system of data set [16] is Schizosaccharomyces pombe (DSM 70572). Put plainly: MIC serial dilution assay. The format is cell-based. As to conditions: serial dilution in 96-well microtiter plates; tested up to 67 µg/mL. The method, then:
as §2

In data set [17] the test system is Wickerhamomyces anomalus (DSM 6766). Put plainly: MIC serial dilution assay. The format is cell-based. As to conditions: serial dilution in 96-well microtiter plates; tested up to 67 µg/mL. The method, then:
as §2

Data set [18] relates to Human breast adenocarcinoma (MCF-7). Put plainly: Cytotoxicity assay. The format is cell-based. As to conditions: serial dilution in 96-well plates. The method, then:
as §2

In data set [19] the test system is Human ovarian cancer (SKOV-3). Put plainly: Cytotoxicity assay. The format is cell-based. As to conditions: serial dilution in 96-well plates. The method, then:
as §2

In data set [20] the test system is Human epidermoid carcinoma (A431). The format is cell-based. The procedure:
as §2

In data set [21] the test system is Human lung carcinoma (A549). It counts as cell-based. The procedure:
as §2

Data set [22] concerns Human prostate carcinoma (PC-3). The format is cell-based. The procedure:
as §2

Data set [23] has as its system beet armyworm (Spodoptera exigua, Lepidoptera). Put plainly: Virulence of purified compounds against beet armyworm larvae (injection). The format is in vivo. Conditions: larvae injected with 0.5 µL of DMSO dilutions (40 to 0.625 µg/mL), n = 6 per concentration, 25 °C. The procedure:
To evaluate the virulence of purified compounds against beet armyworm larvae, beauveriolides I (4) and M (5) were selected based on availability, and cytochalasin D served as a positive control. […] Larvae were injected with 0.5 µL of each dilution (n = 6 per concentration), maintained at 25 °C for one week, and monitored daily to assess mortality. Saline ([…]) and DMSO served as negative controls.
For proof of concept, beauveriolides I (4) and M (5) were selected based on availability and tested following the spore-suspension protocol but considering only total mortality, with cytochalasin D, a mycotoxin commonly produced by Metarhizium spp., used as a positive control ([Kobmoo et al. 2024]).

Where [24] appears, read: serial dilution in 96-well microtiter plates, tested up to 67 µg/mL.
Setting [25] is: KB3.1, serial dilution in 96-well plates, read-out: IC50.

Converted amounts (≈) assume the structure as drawn. Where two headings read alike, the source gives them in different places.

With Beauveriolide III [reference compound], the “adverse outcomes in animal studies” value in data set [1] was “without adverse outcomes”. Further, the “antiatherogenic effects in macrophages” value in data set [2] is on record as “potent antiatherogenic effects”.

Consider `CCCC[C@H](C)[C@@H]1CC(=O)N[C@@H](C)C(=O)N[C@@H](C)C(=O)N[C@H](CC(C)C)C(=O)O1` [Compound 3, Beauveriolide S], for which the MIC entry is recorded as “n.i. (No inhibition up to 67 µg/mL)” in [3] (setting [24]); 66.6 µg/mL (≈ 162 µM) in data set [4] (DSM 346); “n.i. (No inhibition up to 67 µg/mL)” in data set [5]; “n.i. (No inhibition up to 67 µg/mL)” in [6]; “n.i. (No inhibition up to 67 µg/mL)” in [7]; “n.i. (No inhibition up to 67 µg/mL)” in data set [8]. Moreover, the MIC entry in data set [9] was “n.i. (No inhibition up to 67 µg/mL)”. Also, the half-inhibitory concentration (IC50) in data set [10] and in [11] (setting [25]) was over 36.5 µM in each case. Further, the “solubility in deuterated solvents” value in data set [12] is “insoluble”.

With Beauveriolide R [Compound 2], the MIC entry in data set [3] (setting [24]), in [4] (setting [24]), in [13], in [5], in data set [14] and in data set [6] was “n.i. (No inhibition up to 67 µg/mL)” in each case. In addition, the MIC result in [7], in data set [8], in [9], in data set [15], in data set [16] and in data set [17] was “n.i. (No inhibition up to 67 µg/mL)” each time. For the same compound, the half-inhibitory concentration (IC50) in data set [10] and in data set [11] (setting [25]) was over 36.5 µM throughout. Also, in [12], the “solubility in deuterated solvents” value is “soluble”.

Consider `CCCC[C@H](C)[C@@H]1CC(=O)N[C@@H](Cc2ccccc2)C(=O)N[C@@H](C)C(=O)N[C@H](CC(C)C)C(=O)O1` [Compound 4, beauveriolide I], for which the MIC is reported as 66.6 µg/mL (≈ 137 µM) in data set [3] (DSM 10); 66.6 µg/mL (≈ 137 µM) in data set [4] (DSM 346); “n.i. (No inhibition up to 67 µg/mL)” in [5]; “n.i. (No inhibition up to 67 µg/mL)” in [6]; “n.i. (No inhibition up to 67 µg/mL)” in data set [7]; “n.i. (No inhibition up to 67 µg/mL)” in [8]. Also, in data set [9], the MIC entry is listed as “n.i. (No inhibition up to 67 µg/mL)”. Further, the IC50 – broadly, the concentration that inhibits the measured activity by half – in [11] is 13.3 µM; in [18], over 36.5 µM; in [19] it was over 36.5 µM; in data set [20] it was 1.2 µM; in [21], 0.9 µM; in data set [22], 3.5 µM. The “total mortality (TM) in the last two days” value in [23] (7-day period, concentration of the value not stated) worked out at 67%. Moreover, in data set [23] (concentration of the value not stated), the “average total mortality (TM) over the first five days” value stood at 33%. The “adverse outcomes in animal studies” value in data set [1] is on record as “without adverse outcomes”. Further, in data set [2], the “antiatherogenic effects in macrophages” value is given as “potent antiatherogenic effects”.

For the compound `CCCC[C@H](C)[C@@H]1CC(=O)N[C@@H](C(C)C)C(=O)N[C@@H](C)C(=O)N[C@H](CC(C)C)C(=O)O1` [Compound 5, beauveriolide M], the MIC result in data set [3] (setting [24]), in data set [4] (setting [24]), in data set [5], in data set [6], in [8] and in [9] was “n.i. (No inhibition up to 67 µg/mL)” throughout. In addition, the IC50 in data set [10] and in data set [11] (setting [25]) was over 36.5 µM each time. In data set [23] (total mortality), the “insecticidal activity over 7 days” value is listed as “no insecticidal”.

With Beauveriolide Q [Compound 1], the MIC entry in data set [3] (setting [24]), in data set [4] (setting [24]), in data set [13], in data set [5], in data set [14] and in data set [6] was “n.i. (No inhibition up to 67 µg/mL)” in each case. Further, the MIC entry in data set [7], in [8], in data set [9], in data set [15], in [16] and in data set [17] was “n.i. (No inhibition up to 67 µg/mL)” each time. For the same compound, the IC50 in data set [10] and in data set [11] (setting [25]) was over 36.5 µM throughout. For the same compound, in [12], the “solubility in deuterated solvents” value was “poor solubility”.
